SMILES strings stand for the structures.

Format in all cases: cell-based
The target of assay [1] is T1, Protein cereblon/Androgen receptor (Homo sapiens, UniProt P10275+Q96SW2). In words: PROTAC activity at CRBN/AR in human 22Rv1 cells assessed as induction of AR degradation at 0.01 uM incubated for 24 hrs by Western blot analysis relative to control.
Assay [2] addresses T1, Protein cereblon/Androgen receptor. The experiment in a line: PROTAC activity at CRBN/AR in human 22Rv1 cells assessed as induction of AR degradation at 0.1 uM incubated for 24 hrs by Western blot analysis relative to control.
Assay [3] relates to Protein cereblon/Androgen receptor (Homo sapiens), P10275+Q96SW2 [UNDEFINED MUTATION]. In words: PROTAC activity at CRBN/Androgen receptor splice variant 7 in human 22Rv1 cells assessed as induction of AR-V7 degradation at 0.01 uM incubated for 24 hrs by Western blot analysis relative to control.
Assay [4] has the same test system. In words: PROTAC activity at CRBN/Androgen receptor splice variant 7 in human 22Rv1 cells assessed as induction of AR-V7 degradation at 0.1 uM incubated for 24 hrs by Western blot analysis relative to control.
Assay [5] addresses T1, Protein cereblon/Androgen receptor. The experiment in a line: PROTAC activity at CRBN/AR in human VCaP cells assessed as induction of AR degradation at 0.01 uM incubated for 24 hrs by Western blot analysis relative to control.
The target is the same in assay [6]. The experiment in a line: PROTAC activity at CRBN/AR in human VCaP cells assessed as induction of AR degradation at 0.1 uM incubated for 24 hrs by Western blot analysis relative to control.
The test system of assay [7] is Protein cereblon/Androgen receptor (Homo sapiens), P10275+Q96SW2 [UNDEFINED MUTATION]. The experiment in a line: PROTAC activity at CRBN/Androgen receptor splice variant 7 in human VCaP cells assessed as induction of AR-V7 degradation at 0.01 uM incubated for 24 hrs by Western blot analysis relative to control.
For assay [8] the test system is unchanged. In words: PROTAC activity at CRBN/Androgen receptor splice variant 7 in human VCaP cells assessed as induction of AR-V7 degradation at 0.1 uM incubated for 24 hrs by Western blot analysis relative to control.
Assay [9] has as its target T2, Protein cereblon/Eukaryotic peptide chain release factor GTP-binding subunit ERF3A (Homo sapiens, UniProt Q96SW2+P15170). In words: Molecular glue activity at CRBN/GSPT1 in human 22Rv1 cells assessed as induction of GSPT1 degradation at 0.01 uM incubated for 24 hrs by Western blot analysis relative to control.
The target of assay [10] is T2, Protein cereblon/Eukaryotic peptide chain release factor GTP-binding subunit ERF3A. The experiment in a line: Molecular glue activity at CRBN/GSPT1 in human 22Rv1 cells assessed as induction of GSPT1 degradation at 0.1 uM incubated for 24 hrs by Western blot analysis relative to control.

T2 sequence (P15170 whole entry, looked up): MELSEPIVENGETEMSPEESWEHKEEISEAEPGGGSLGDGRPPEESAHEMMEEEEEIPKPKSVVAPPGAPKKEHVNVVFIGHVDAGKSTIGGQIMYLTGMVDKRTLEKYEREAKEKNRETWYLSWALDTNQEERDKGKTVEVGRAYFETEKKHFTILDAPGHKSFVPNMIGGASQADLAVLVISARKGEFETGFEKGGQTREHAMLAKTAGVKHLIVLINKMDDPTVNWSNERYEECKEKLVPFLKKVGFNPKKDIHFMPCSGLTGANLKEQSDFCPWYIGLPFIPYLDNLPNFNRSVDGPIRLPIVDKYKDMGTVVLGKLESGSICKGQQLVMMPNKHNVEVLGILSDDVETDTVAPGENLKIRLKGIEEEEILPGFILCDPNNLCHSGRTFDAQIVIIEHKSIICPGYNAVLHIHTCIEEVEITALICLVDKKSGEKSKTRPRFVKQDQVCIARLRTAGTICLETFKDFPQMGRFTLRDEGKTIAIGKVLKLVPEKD
T2 sequence (Q96SW2 whole entry, looked up): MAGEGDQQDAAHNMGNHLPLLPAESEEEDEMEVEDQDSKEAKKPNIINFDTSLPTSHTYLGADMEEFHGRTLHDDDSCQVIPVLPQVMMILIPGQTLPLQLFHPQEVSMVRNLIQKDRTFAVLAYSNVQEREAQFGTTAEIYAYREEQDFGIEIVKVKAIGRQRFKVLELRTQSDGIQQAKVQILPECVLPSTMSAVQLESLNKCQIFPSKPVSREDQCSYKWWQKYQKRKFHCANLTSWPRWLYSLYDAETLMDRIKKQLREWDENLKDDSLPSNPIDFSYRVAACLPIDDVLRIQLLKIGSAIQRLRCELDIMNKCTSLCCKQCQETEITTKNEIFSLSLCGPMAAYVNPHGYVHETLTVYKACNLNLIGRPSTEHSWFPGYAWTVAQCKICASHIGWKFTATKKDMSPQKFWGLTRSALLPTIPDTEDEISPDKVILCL
T1 sequence (P10275 whole entry, looked up): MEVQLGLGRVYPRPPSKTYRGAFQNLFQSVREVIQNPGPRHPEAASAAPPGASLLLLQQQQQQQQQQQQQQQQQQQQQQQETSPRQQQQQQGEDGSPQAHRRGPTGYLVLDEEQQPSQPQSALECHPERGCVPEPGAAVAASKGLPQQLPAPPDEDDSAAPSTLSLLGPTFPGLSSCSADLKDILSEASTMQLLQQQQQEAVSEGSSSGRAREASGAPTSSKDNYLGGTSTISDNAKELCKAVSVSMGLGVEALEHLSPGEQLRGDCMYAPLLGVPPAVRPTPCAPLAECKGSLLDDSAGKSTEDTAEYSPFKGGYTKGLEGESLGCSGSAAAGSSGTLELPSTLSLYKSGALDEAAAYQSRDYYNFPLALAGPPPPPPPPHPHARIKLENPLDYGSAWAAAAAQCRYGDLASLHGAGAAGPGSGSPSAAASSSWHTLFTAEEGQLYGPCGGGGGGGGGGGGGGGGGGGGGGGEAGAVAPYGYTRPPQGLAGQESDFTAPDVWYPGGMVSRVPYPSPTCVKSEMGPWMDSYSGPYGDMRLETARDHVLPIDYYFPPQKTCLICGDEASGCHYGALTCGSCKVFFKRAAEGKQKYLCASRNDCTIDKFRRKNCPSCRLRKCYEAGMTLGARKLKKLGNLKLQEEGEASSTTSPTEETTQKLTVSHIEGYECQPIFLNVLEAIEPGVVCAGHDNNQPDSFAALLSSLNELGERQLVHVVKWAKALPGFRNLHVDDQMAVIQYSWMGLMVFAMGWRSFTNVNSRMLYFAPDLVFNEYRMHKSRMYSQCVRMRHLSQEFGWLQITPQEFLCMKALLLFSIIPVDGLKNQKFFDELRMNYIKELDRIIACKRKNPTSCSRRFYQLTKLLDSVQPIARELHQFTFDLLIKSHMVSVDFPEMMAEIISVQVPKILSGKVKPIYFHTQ
T1 sequence (Q96SW2 whole entry, looked up): as the sequence (Q96SW2 whole entry, looked up) above
Protein cereblon/Androgen receptor (Homo sapiens), P10275+Q96SW2 [UNDEFINED MUTATION], sequence (P10275 whole entry, looked up, change not shown, canonical isoform): as the sequence (P10275 whole entry, looked up) above
Protein cereblon/Androgen receptor (Homo sapiens), P10275+Q96SW2 [UNDEFINED MUTATION], sequence (Q96SW2 whole entry, looked up, change not shown, canonical isoform): as the sequence (Q96SW2 whole entry, looked up) above

Turning to `CC(C)(c1ccc(OCC2CCN(S(C)(=O)=O)CC2)cc1)c1cc(Cl)c(OCC2CCN(C(=O)CCCCCNc3ccc4c(c3)C(=O)N(C3CCC(=O)NC3=O)C4=O)CC2)c(C#N)c1` (stereo not given), the Activity in assay [1] was 71.5%; in assay [2], 78%; in [3] it was 70.6%; in assay [4] it was 71.9%; in assay [5], less than 5%; in assay [6], 34.5%. Further, the Activity in assay [7] is less than 5%; in assay [8], 40.6%; in [9], 95.6%; in assay [10], 96.7%.
For the compound `CC(C)(c1ccc(OCCCCl)cc1)c1ccc(OCC2CCN(C(=O)CCCCCNc3ccc4c(c3)C(=O)N(C3CCC(=O)NC3=O)C4=O)CC2)cc1` (stereo not given), the Activity in assay [1] is 13.9%; in assay [2], 30%; in assay [3] it was less than 5%; in [4], 5.1%; in assay [5] it was less than 5%; in assay [6], less than 5%. The Activity in assay [7] is less than 5%; in assay [8] it was 28.6%; in [9] it was 37.3%; in assay [10] it was 92.8%.
In the case of `COc1ccc(C(C)(C)c2cc(Cl)c(OCC3CCN(C(=O)CCCCCNc4ccc5c(c4)C(=O)N(C4CCC(=O)NC4=O)C5=O)CC3)c(Cl)c2)cc1` (stereo not given), the Activity in [1] is 39.7%; in [2], 72.9%; in [3] it was 11.5%; in assay [4], 57.3%; in [5], less than 5%; in [6], 69.8%. Moreover, the Activity in [7] is less than 5%; in [8] it was 69.1%; in assay [9], 72.9%; in [10], 93.3%.
Turning to `CC(C)(c1ccc(OCC2CCOC2)cc1)c1cc(Cl)c(OCC2CCN(C(=O)CCCCCNc3ccc4c(c3)C(=O)N(C3CCC(=O)NC3=O)C4=O)CC2)c(C#N)c1` (stereo not given), the Activity is 72.5% in [1]; 73.5% in [2]; 76.8% in assay [3]; 89.1% in assay [4]; 83.9% in assay [5]; 85.1% in assay [6]. The Activity in assay [7] was determined as 43.6%; in assay [8], 40.1%; in assay [9], 96.6%; in assay [10], 96.1%.
For `COc1ccc(C(C)(C)c2cc(Cl)c(OCC3CCN(C(=O)CCCCCNc4cc5c(cc4F)C(=O)N(C4CCC(=O)NC4=O)C5=O)CC3)c(C#N)c2)cc1` (stereo not given), the Activity in [1] is less than 5%; in [2] it was less than 5%; in assay [3], less than 5%; in [4], 25.2%; in assay [5], 25.1%; in assay [6], 17.3%. Moreover, the Activity in [7] is less than 5%; in [8], 10%; in [9], 74.6%; in assay [10], 88.6%.
In the case of `CC(C)(c1ccc(OCC2CCOCC2)cc1)c1cc(Cl)c(OCC2CCN(C(=O)CCCCCNc3ccc4c(c3)C(=O)N(C3CCC(=O)NC3=O)C4=O)CC2)c(C#N)c1` (stereo not given), the Activity in assay [1] was 48%; in assay [2], 79.3%; in assay [3], 68.5%; in assay [4] it was 83.9%; in assay [5] it was less than 5%; in assay [6], 63%. For the same compound, the Activity is less than 5% in assay [7], less than 5% in assay [8], 93.6% in assay [9] and 96.1% in assay [10].
Regarding `COc1ccc(C(C)(C)c2ccc(OCC3CCN(C(=O)CCCCCNc4ccc5c(c4)C(=O)N(C4CCC(=O)NC4=O)C5=O)CC3)cc2)cc1` (stereo not given), the Activity in [1] was 38.5%; in assay [2], 79.5%; in assay [3], 6.7%; in assay [4], 57.4%; in assay [5], 20.7%; in [6] it was 83.9%. The Activity in assay [7] amounted to 23.3%; in [8] it was 54.5%; in [9] it was 88.3%; in [10], 94%.
For `CC(C)(c1ccc(OCc2ccncn2)cc1)c1cc(Cl)c(OCC2CCN(C(=O)CCCCCNc3ccc4c(c3)C(=O)N(C3CCC(=O)NC3=O)C4=O)CC2)c(C#N)c1` (stereo not given), the Activity in assay [1] is 75.1%; in assay [2], 80.5%; in assay [3] it was 75.5%; in assay [4], 77.7%; in assay [5], 61.3%; in assay [6] it was 58.8%. Also, the Activity in [7] was 72.3%; in assay [8] it was 84.5%; in [9], 97.5%; in [10] it was 97.2%.
On to `CC(C)(c1ccc(OCC2COC2)cc1)c1cc(Cl)c(OCC2CCN(C(=O)CCCCCNc3ccc4c(c3)C(=O)N(C3CCC(=O)NC3=O)C4=O)CC2)c(C#N)c1` (stereo not given), for which the Activity is 78.3% in assay [1]; 67.1% in [2]; 64.2% in assay [3]; 71% in assay [4]; 82.5% in assay [5]; 81.2% in assay [6]. In addition, the Activity in assay [7] stood at 34.8%; in [8], 27.8%; in assay [9], 96.8%; in [10], 96.5%.
`CC(C)(c1ccc(OCC2CN(S(C)(=O)=O)C2)cc1)c1cc(Cl)c(OCC2CCN(C(=O)CCCCCNc3ccc4c(c3)C(=O)N(C3CCC(=O)NC3=O)C4=O)CC2)c(C#N)c1` (stereo not given): the Activity came to 51.3% in assay [1]; 78.3% in assay [2]; 73.9% in assay [3]; 81.2% in [4]; 53.6% in [5]; 75.6% in assay [6]. Also, the Activity in assay [7] is less than 5%; in [8], 48%; in assay [9], 93.2%; in [10], 96.8%.
In the case of `COc1ccc(C(C)(C)c2cc(Cl)c(OCC3CCN(C(=O)CCCCCNc4ccc(C(=O)N[C@H]5CCC(=O)NC5=O)c(F)c4)CC3)c(C#N)c2)cc1`, the Activity was 23.9% in [1]; less than 5% in assay [2]; 14.5% in [3]; less than 5% in [4]; 15.7% in assay [5]; less than 5% in assay [6]. For the same compound, the Activity in assay [7], in [8], in [9] and in assay [10] was less than 5% throughout.
`CC(C)(c1ccc(OCc2ccccc2)cc1)c1cc(Cl)c(OCC2CCN(C(=O)CCCCCNc3ccc4c(c3)C(=O)N(C3CCC(=O)NC3=O)C4=O)CC2)c(C#N)c1` (stereo not given): the Activity is less than 5% in [1]; 50.1% in assay [2]; less than 5% in [3]; 58.5% in [4]; less than 5% in [5]; 21.7% in assay [6]. Also, the Activity in assay [7] was less than 5%; in [8], 21.1%; in [9] it was 81.5%; in assay [10], 97.3%.
Take `CC(C)(c1ccc(OCc2cncnc2)cc1)c1cc(Cl)c(OCC2CCN(C(=O)CCCCCNc3ccc4c(c3)C(=O)N(C3CCC(=O)NC3=O)C4=O)CC2)c(C#N)c1` (stereo not given): the Activity was determined as 80.3% in [1]; 85.7% in [2]; 75.2% in [3]; 74.7% in assay [4]; 72.4% in assay [5]; 74.7% in assay [6]. In addition, the Activity came to 84.2% in [7], 94% in assay [8], 97.6% in [9] and 97.5% in assay [10].

These data come from ChEMBL document CHEMBL6177998, “Rational Design of Dual Degraders by Incorporating Molecular Glue Structural Features into PROTAC Degraders” (J Med Chem, 2025).
